Measured values published in ChEMBL document CHEMBL4342498, “Design and Discovery of an Orally Efficacious Spiroindolinone-Based Tankyrase Inhibitor for the Treatment of Colon Cancer” (J Med Chem, 2020).
Converted amounts (≈) assume the structure as drawn. The source made the active and inactive calls. No cut-off for these calls is given here.

Tests used:
[1] = target: T1, Tankyrase 1/2 (Homo sapiens) (UniProt Q9H2K2+O95271); test: Inhibition of TNKS/TNKS2-mediated WNT/beta-catenin signaling pathway in human COLO320DM cells assessed as upregulation of AXIN2 expression at 0.1 uM measured after 16 hrs by Western blot analysis relative to control; format: cell-based
COLO 320DM [2] = test: Antitumor activity against human COLO320DM cells xenografted in Prkdc-NOD-SCID CB17 mouse assessed as tumor growth inhibition at 300 mg/kg, po administered twice daily for 5 days followed by 2 days interval for 2 cycles relative to control; format: functional; details: read-out: TGI
[3] = Dose normalized initial plasma concentration in Sprague-Dawley rat at 1 mg/kg, iv; format: ADME, organism-based; details: in vivo
[4] = Dose normalized AUC (infinity) in Sprague-Dawley rat at 1 mg/kg, iv; format: ADME, organism-based; details: in vivo
[5] = Stability in human liver microsomes assessed as parent compound remaining at 1 uM measured after 60 mins in presence of NADPH by LC-MS/MS analysis; format: ADME, Microsome; details: read-out: Stability
[6] = Stability in mouse liver microsomes assessed as parent compound remaining at 1 uM measured after 60 mins in presence of NADPH by LC-MS/MS analysis; format: ADME, Microsome; details: read-out: Stability
[7] = Permeability of the compound measured after 4 hrs by PAMPA; format: ADME; details: read-out: permeability
[8] = Protein binding in mouse plasma assessed as unbound fraction at 1 uM measured after 24 hrs by LC-MS/MS analysis; format: ADME, cell-free
[9] = Stability in rat liver microsomes assessed as parent compound remaining at 1 uM measured after 30 mins in presence of NADPH by LC-MS/MS analysis; format: ADME, Microsome; details: read-out: Stability
COLO 320DM [10] = test: Antitumor activity against human COLO320DM cells xenografted in Prkdc-NOD-SCID CB17 mouse assessed as tumor growth inhibition at 150 mg/kg, ip administered twice daily for 5 days followed by 2 days interval for 2 cycles relative to control; format: functional; details: read-out: TGI
RKO = test: Antiproliferative activity against human RKO cells assessed inhibition of cell growth measured after 5 days by MTT assay; format: functional; details: 120 h
COLO 320DM [11] = test: Antiproliferative activity against human COLO320DM cells assessed inhibition of cell growth measured after 5 days by MTT assay; format: functional; details: 120 h
[12] = target: Poly [ADP-ribose] polymerase 1 (Homo sapiens, UniProt P09874); test: Inhibition of recombinant human PARP1 expressed in Escherichia coli assessed as reduction in auto-PARylation using histone as substrate measured after 45 mins in presence of biotinylated-NAD+ by ELISA
Sequence of Poly [ADP-ribose] polymerase 1 (P09874 whole entry): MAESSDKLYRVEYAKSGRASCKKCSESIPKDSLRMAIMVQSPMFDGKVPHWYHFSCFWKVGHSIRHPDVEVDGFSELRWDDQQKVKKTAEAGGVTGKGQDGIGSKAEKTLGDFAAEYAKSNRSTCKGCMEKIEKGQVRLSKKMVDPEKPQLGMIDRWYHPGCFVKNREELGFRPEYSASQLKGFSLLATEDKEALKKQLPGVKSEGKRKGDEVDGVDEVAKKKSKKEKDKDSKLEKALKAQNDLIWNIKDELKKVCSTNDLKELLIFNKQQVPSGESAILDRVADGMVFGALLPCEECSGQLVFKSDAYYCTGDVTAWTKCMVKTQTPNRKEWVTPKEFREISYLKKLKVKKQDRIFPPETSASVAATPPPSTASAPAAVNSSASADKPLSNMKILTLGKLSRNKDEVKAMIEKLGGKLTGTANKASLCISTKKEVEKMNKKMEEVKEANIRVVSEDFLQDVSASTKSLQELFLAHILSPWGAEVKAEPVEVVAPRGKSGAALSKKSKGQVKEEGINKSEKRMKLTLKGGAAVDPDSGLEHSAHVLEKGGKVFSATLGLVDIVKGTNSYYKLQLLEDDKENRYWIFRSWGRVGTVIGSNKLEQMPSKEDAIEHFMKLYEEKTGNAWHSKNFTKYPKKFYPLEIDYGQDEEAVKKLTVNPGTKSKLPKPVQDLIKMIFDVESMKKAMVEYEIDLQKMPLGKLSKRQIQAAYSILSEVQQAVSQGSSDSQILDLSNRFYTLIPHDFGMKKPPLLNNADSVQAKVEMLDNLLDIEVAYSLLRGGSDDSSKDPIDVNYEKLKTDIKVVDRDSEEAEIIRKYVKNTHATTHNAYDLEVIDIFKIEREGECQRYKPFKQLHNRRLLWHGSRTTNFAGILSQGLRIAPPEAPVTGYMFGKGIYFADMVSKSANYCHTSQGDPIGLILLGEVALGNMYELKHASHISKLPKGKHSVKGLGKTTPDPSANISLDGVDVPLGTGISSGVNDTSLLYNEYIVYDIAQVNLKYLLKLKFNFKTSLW

COLO 320DM [13] = test: Antiproliferative activity against human COLO320DM cells assessed as inhibition of cell growth measured after 4 days by CellTiter-Glo assay; format: functional; details: 96 h
Tankyrase 1/2 [14] = target: T2, Tankyrase 1/2 (Homo sapiens, UniProt Q9H2K2+O95271); details: hek293
T2 sequence (Q9H2K2 whole entry): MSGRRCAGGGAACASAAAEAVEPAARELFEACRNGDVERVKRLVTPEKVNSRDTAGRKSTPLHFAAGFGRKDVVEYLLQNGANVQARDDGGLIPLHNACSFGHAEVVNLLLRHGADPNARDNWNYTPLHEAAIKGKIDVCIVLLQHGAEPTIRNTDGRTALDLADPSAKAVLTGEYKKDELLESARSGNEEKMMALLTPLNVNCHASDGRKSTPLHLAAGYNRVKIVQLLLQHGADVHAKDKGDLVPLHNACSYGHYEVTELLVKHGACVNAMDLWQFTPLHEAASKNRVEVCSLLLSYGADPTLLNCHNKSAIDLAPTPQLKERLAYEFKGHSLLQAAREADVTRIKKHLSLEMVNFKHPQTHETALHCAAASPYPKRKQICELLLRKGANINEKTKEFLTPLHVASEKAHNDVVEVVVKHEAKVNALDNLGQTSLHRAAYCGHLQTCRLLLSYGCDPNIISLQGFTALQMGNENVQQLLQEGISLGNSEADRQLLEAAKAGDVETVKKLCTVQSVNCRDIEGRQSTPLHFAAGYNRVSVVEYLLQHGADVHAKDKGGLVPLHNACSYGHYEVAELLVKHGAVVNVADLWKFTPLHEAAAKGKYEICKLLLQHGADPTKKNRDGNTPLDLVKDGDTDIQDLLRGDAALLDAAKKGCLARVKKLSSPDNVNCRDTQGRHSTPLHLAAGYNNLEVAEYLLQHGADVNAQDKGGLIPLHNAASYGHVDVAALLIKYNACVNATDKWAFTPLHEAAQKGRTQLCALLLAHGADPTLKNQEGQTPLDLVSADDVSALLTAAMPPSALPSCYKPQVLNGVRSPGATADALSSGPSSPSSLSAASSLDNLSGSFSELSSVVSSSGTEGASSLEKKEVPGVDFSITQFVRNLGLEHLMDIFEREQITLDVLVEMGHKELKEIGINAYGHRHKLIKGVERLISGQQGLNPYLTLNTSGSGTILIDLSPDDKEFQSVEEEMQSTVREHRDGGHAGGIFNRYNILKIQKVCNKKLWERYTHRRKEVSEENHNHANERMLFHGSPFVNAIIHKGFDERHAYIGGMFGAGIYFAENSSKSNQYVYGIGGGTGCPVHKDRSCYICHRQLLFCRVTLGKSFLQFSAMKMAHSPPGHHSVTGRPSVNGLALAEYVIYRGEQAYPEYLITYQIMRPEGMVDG
T2 sequence (O95271 whole entry): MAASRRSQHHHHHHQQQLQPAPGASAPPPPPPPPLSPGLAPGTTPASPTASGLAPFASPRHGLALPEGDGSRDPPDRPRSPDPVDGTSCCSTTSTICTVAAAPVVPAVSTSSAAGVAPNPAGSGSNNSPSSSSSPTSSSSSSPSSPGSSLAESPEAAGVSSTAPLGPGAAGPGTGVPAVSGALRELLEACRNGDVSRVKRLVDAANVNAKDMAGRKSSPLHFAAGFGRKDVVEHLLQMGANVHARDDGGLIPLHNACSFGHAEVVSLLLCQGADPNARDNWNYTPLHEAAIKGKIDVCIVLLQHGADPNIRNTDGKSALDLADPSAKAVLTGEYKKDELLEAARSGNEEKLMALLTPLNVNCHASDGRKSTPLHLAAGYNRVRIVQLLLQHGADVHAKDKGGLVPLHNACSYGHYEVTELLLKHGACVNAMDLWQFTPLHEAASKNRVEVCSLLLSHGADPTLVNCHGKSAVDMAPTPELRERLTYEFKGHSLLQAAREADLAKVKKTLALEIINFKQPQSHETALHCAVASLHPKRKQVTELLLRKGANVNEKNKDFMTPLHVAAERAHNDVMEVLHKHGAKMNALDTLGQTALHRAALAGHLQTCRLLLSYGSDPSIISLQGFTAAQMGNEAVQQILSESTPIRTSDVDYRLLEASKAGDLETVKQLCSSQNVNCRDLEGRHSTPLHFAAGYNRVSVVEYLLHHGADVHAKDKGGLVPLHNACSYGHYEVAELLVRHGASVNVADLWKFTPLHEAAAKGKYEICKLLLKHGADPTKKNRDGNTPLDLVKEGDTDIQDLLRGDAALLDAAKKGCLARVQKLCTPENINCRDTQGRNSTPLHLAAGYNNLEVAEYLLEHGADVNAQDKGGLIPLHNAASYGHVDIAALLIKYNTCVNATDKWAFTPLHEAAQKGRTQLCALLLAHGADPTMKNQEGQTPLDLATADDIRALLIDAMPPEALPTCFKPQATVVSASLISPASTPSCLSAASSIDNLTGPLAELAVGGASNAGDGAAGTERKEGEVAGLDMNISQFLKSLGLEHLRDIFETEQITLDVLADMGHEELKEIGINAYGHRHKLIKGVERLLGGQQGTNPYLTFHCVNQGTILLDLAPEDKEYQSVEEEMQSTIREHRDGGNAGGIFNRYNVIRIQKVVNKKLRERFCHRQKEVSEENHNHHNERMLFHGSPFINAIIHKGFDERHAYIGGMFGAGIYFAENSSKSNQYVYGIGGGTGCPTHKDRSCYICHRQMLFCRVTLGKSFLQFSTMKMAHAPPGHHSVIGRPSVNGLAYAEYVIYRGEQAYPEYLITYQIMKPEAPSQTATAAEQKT
Description: Inhibition of TNKS/TNKS2 (unknown origin) expressed in HEK293 cells assessed as reduction in Wnt-signaling measured after 24 hrs by TCF-luciferase reporter gene assay

Tankyrase 1/2 [15] = target: T2, Tankyrase 1/2
Description: Inhibition of TNKS/TNKS2 (unknown origin) expressed in human DLD1 cells assessed as reduction in Wnt-signaling measured after 24 hrs by TCF-luciferase reporter gene assay

[16] = Protein binding in human plasma assessed as unbound fraction at 1 uM measured after 24 hrs by LC-MS/MS analysis; format: ADME, cell-free
[17] = Stability in rat liver microsomes assessed as parent compound remaining at 1 uM measured after 60 mins in presence of NADPH by LC-MS/MS analysis; format: ADME, Microsome; details: read-out: Stability
[18] = target: T3, Poly [ADP-ribose] polymerase tankyrase-2 (Homo sapiens, UniProt Q9H2K2); test: Inhibition of recombinant human N-terminal TEV cleavage site-fused/FLAG-poly his-tagged TNKS2 ARC5-SAM-PARP domain (613 to 1166 residues) expressed in Escherichia coli assessed as reduction in auto-PARylation preincubated for 10 mins followed by biotinylated-NAD+ addition and measured after 45 mins by ELISA
T3 sequence (Q9H2K2 whole entry): T2 sequence (Q9H2K2 whole entry)

MDR1 = test: Efflux ratio of permeability across basolateral to apical side over apical to basolateral side in MDCK2-MDR1 cells; format: ADME, cell-based, Canis lupus familiaris; details: dog, MDCK-MDR1
[19] = Efflux ratio of permeability across basolateral to apical side over apical to basolateral side in MDCK2 cells; format: ADME, cell-based, Canis lupus familiaris, MDCK-II; details: dog, mdck
[20] = Stability in mouse liver microsomes assessed as parent compound remaining at 1 uM measured after 30 mins in presence of NADPH by LC-MS/MS analysis; format: ADME, Microsome; details: read-out: Stability
[21] = target: T4, Poly [ADP-ribose] polymerase tankyrase-1 (Homo sapiens, UniProt O95271)
T4 sequence (O95271 whole entry): T2 sequence (O95271 whole entry)
Description: Inhibition of recombinant human N-terminal TEV cleavage site-fused/FLAG-poly his-tagged TNKS SAM-PARP domain (1024 to 1327 residues) expressed in Escherichia coli assessed as reduction in auto-PARylation preincubated for 10 mins followed by biotinylated-NAD+ addition and measured after 45 mins by ELISA

[22] = Stability in human liver microsomes assessed as parent compound remaining at 1 uM measured after 30 mins in presence of NADPH by LC-MS/MS analysis; format: ADME, Microsome; details: read-out: Stability
physchem = details: phosphate buffered saline, pH 7.4
[23] = Net efflux ratio of permeability across basolateral to apical side over apical to basolateral side in MDCK2-MDR1 cells to MDCK2 cells; format: ADME, cell-based, Canis lupus familiaris; details: dog, mdck
[24] = target: T1, Tankyrase 1/2 (Homo sapiens); test: Inhibition of TNKS/TNKS2-mediated WNT/beta-catenin signaling pathway in human COLO320DM cells assessed as reduction in beta-catenin expression at 0.33 uM measured after 16 hrs by Western blot analysis; format: cell-based
[25] = target: T1, Tankyrase 1/2 (Homo sapiens); test: Inhibition of TNKS/TNKS2-mediated WNT/beta-catenin signaling pathway in human COLO320DM cells assessed as upregulation of AXIN2 expression at 0.33 uM measured after 16 hrs by Western blot analysis; format: cell-based

| SMILES | C0/dose [3] [µM] | AUC/dose [4] [µmol·h/L] | remaining at 1 h, 1 µM [5] [%] | remaining at 1 h, 1 µM [6] [%] | Papp at 4 h [7] [×10⁻⁶ cm/s] | fraction unbound at 24 h, 1 µM [8] | remaining at 0.5 h, 1 µM [9] [%] | GI50 (RKO) [nM] | GI50 (COLO 320DM [11]) [nM] | GI50 (COLO 320DM [13]) [nM] | IC50 (Tankyrase 1/2 [14]) [nM] | IC50 (Tankyrase 1/2 [15]) [nM] | fraction unbound at 24 h, 1 µM [16] | remaining at 1 h, 1 µM [17] [%] | IC50 [18] [nM] | efflux ratio (MDR1) | efflux ratio [19] | remaining at 0.5 h, 1 µM [20] [%] | IC50 [21] [nM] | solubility at 1 h, 200 µM (physchem) [µg/mL] | also measured |
| --- | --- | --- | --- | --- | --- | --- | --- | --- | --- | --- | --- | --- | --- | --- | --- | --- | --- | --- | --- | --- | --- |
| O=c1[nH]c(N2CCC3(CC2)CN(CCO)c2cc(F)cc(F)c23)nc2c1CCCC2 | 9.84 | 4.42 | 2.2 to 5.9 | 3.2 to 18.3 | 2 | 0.004 to 0.015 | 12.8 | > 10000 | 450 | 1630 | 12.1 | 77.6 | 0.004 to 0.015 | 3.2 |  |  |  |  |  |  | fold change (FC) [1]: 4.42; inhibition in vivo at 300 mg/kg (COLO 320DM [2]): 51.9%; inhibition in vivo at 150 mg/kg (COLO 320DM [10]): 47.2%; IC50 [12]: > 100000 nM |
| CN1CCCc2c1nc(N1CCC3(CC1)C(=O)N(CCO)c1cc(F)cc(F)c13)[nH]c2=O |  |  | 6.3 | 2 to 8.5 | 3 | 0.083 | 2 |  |  | 250 | 1.1 | 3.9 | 0.022 | 0.5 | 13.5 | 24.6 | 6.4 | 21.2 | 7.5 | 82.9 (≈ 186 µM) | remaining at 0.5 h, 1 µM [22]: 21%; Ratio [23]: 3.8 |
| CN1CCCc2c1nc(N1CCC3(CC1)C(=O)N(C)c1cc(OCC(=O)O)cc(F)c13)[nH]c2=O |  |  | 97.6 | 93.3 |  |  |  |  |  | 300 | 507 | 1877 |  |  | 9.9 | 0.3 | 0.3 |  | 4.2 | 98.4 (≈ 209 µM) | inhibition [24]: inactive; Ratio [23]: 1; inhibition [25]: inactive |
| CN1CCCc2c1nc(N1CCC3(CC1)CN(CCO)c1cc(F)cc(F)c13)[nH]c2=O |  |  | 1.4 | 0.2 | 3.3 | 0.002 | 0.4 |  |  | 250 | 2.7 | 7 | 0.005 | 0.2 | 21.4 |  |  | 0.3 | 13.6 | 40.2 (≈ 93.2 µM) | remaining at 0.5 h, 1 µM [22]: 7.4% |
| CS(=O)(=O)c1ccc(-c2nnc(/C=C/c3nnc(-c4ccc(C#N)cc4)o3)n2-c2ccccc2Cl)nc1 | 1.54 | 0.79 | 100 | 95.8 |  | 0.035 |  | 8900 | 430 | 1500 |  |  | 0.028 |  |  |  |  |  |  |  |  |
